EC50 data for 26 compounds are collected here from patent publication US12350270B2, “Antimalarial agents” (Merck Sharp & Dohme LLC, priority 2019, dated 2025).

pEC50: −log10 of the molar value.

The subject of the first assay is parasites (ring stage, in human red blood cell culture). As to the kind of experiment: Parasite LDH growth assay (antiparasite potency, Parasite Assay). Particulars: 0.7% rings, 2% haematocrit, 72 hours at 37° C., LDH readout of parasite growth. The assay is classed as cell-based, Plasmodium falciparum. The protocol:
Assessing Antiparasite Potency in a Parasite LDH Growth Assay (Parasite Assay)
The parasite stock was maintained at 4% haematocrit in RPMI-Hepes media buffered with sodium bicarbonate and supplemented with 5% heat inactivated human serum and 0.5% albumax.
On the day of assay set up, a blood smear of the parasite culture was Giemsa stained and counted. The parasitemia was adjusted to 0.7% rings and the haematocrit was diluted to 2% in RPMI-Hepes media buffered with sodium bicarbonate and supplemented with 5% heat inactivated human serum and 0.5% albumax. 30 ul of diluted parasites are then added into 10 ul of media+compound in pre-prepared Greiner TC assay plates. Parasite assay plates were placed in gassed humidified boxes in single layer and allowed to incubate at 37° C. for 72 hours. After 72 hours growth, assay plates are sealed with parafilm and frozen flat, in single file at −80° C. overnight. On the following day, assay plates are allowed to thaw at room temperature for 4 hours to which an LDH assay is performed to measure parasite growth.
`CCC1(CC)CC(=O)N([C@@H]2CCOc3ccc(C(=O)NC4c5ccccc5CC4(O)C(F)(F)F)cc32)C(=N)N1` (single isomer, unassigned) [Example 272D]: the pEC50 – broadly, −log10 of the EC50, conventionally taken in molar units – was 8.64.

Compound `CCC1(CC)CC(=O)N([C@@H]2CCOc3ccc(C(=O)NC4c5ccccc5OC(C)(C)C4(C)O)cc32)C(=N)N1` (single isomer, unassigned) [Example 242B] gave a pEC50 of 7.98. This pEC50 is 0.66 log units lower than that of the compound before.

For `CCC1C[C@@H](N2C(=N)NC(CC)(CC)CC2=O)c2cc(C(=O)N[C@@H]3c4ccccc4C[C@H]3O)ccc2O1` (single isomer, unassigned) [Example 9B], the pEC50 was 6.77.

Take `CCOC(=O)C1(C)Oc2ccccc2C1NC(=O)c1ccc2c(c1)[C@H](N1C(=N)NC(CC)(CC)CC1=O)CCO2` (stereo partly drawn) [Example 275, ethyl 3-[[(4R)-4-(4,4-diethyl-2-imino-6-oxo-hexahydropyrimidin-1-yl)chromane-6-carbonyl]amino]-2-methyl-3H-benzofuran-2-carboxylate]: the pEC50 is 7.59.

On to `CCC1(CC)CC(=O)N([C@@H]2CCOc3ccc(C(=O)NC4c5ccccc5OCC4O)cc32)C(=N)N1` (single isomer, unassigned) [Example 8A], for which the pEC50 is 8.00.

Take `CCC1(CC)CC(=O)N(C2c3cc(C(=O)N[C@@H]4c5ccccc5C[C@H]4O)ccc3OC2(C)CO)C(=N)N1` (single isomer, unassigned) [Example 178A]: the pEC50 is 6.97.

Staying with this assay, now noted: Plasmodium falciparum, Erythrocyte, 72 h, 0.7% rings, 2% haematocrit, 72 hours at 37° C., LDH readout of parasite growth.
On to `CCC1(CC)CC(=O)N(C2CC(C)Oc3ccc(C(=O)N[C@@H]4c5ccccc5OC[C@@]4(C)O)cc32)C(=N)N1` (stereo partly drawn) [Example 209, 4-(4,4-diethyl-2-imino-6-oxo-hexahydropyrimidin-1-yl)-N-[(3S,4R)-3-hydroxy-3-methyl-chroman-4-yl]-2-methyl-chromane-6-carboxamide], for which the pEC50 was 8.10.

On to `CCC1(CC)CC(=O)N([C@@H]2CCOc3c(Cl)cc(C(=O)N[C@H]4c5ccccc5OC(C)(C)[C@@H]4O)cc32)C(=N)N1` [Example 29B, (R)-8-chloro-4-(4,4-diethyl-2-imino-6-oxotetrahydropyrimidin-1(2H)-yl)-N-((3R,4S)-3-hydroxy-2,2-dimethylchroman-4-yl)chromane-6-carboxamide], for which the pEC50 is 7.40.

As to `CCC1(CC)CC(=O)N(C2CCCc3ccc(C(=O)N[C@@H]4c5ccccc5OC[C@@]4(C)O)cc32)C(=N)N1` (stereo partly drawn) [Example 161, 8-(4,4-diethyl-2-imino-6-oxotetrahydropyrimidin-1(2H)-yl)-N-((3S,4R)-3-hydroxy-3-methylchroman-4-yl)-5,6,7,8-tetrahydronaphthalene-2-carboxamide], the pEC50 was 9.10. This pEC50 lies 1.70 log units higher than the previous one.

As for `CCC1(CC)CC(=O)N([C@H]2c3cc(C(=O)N[C@@H]4c5ccccc5C[C@H]4O)ccc3O[C@@]2(C)COC)C(=N)N1` [Example 75A, (2R,3S)-3-(4,4-diethyl-2-imino-6-oxotetrahydropyrimidin-1(2H)-yl)-N-((1R,2R)-2-hydroxy-2,3-dihydro-1H-inden-1-yl)-2-(methoxymethyl)-2-methyl-2,3-dihydrobenzofuran-5-carboxamide], the pEC50 is 9.40.

Take `CC1(C)CC(=O)N([C@@H]2CCS(=O)(=O)c3ccc(C(=O)N[C@H]4CC(C)(C)Oc5ccccc54)cc32)C(=N)N1` [Example 220, (4R)-N-[(4S)-2,2-dimethylchroman-4-yl]-4-(2-imino-4,4-dimethyl-6-oxo-hexahydropyrimidin-1-yl)-1,1-dioxo-3,4-dihydro-2H-thiochromene-6-carboxamide]: the pEC50 is 8.54.

On to `CC1(C)CC(=O)N([C@@H]2CCOc3ccc(C(=O)N[C@@H]4c5ccccc5C[C@H]4O)cc32)C(=N)N1` [Example 61A, (R)-N-((1R,2R)-2-hydroxy-2,3-dihydro-1H-inden-l-yl)-4-(2-imino-4,4-dimethyl-6-oxotetrahydropyrimidin-1(2H)-yl)chromane-6-carboxamide], for which the negative-log EC50 (pEC50) was 8.08.

As to `COC1COc2ccc(C(=O)N[C@@H]3c4ccccc4C[C@H]3O)cc2C1N1C(=N)NC(C)(C)CC1=O` (stereo partly drawn) [Example 110, N-[(1R,2R)-2-hydroxyindan-1-yl]-4-(2-imino-4,4-dimethyl-6-oxo-hexahydropyrimidin-1-yl)-3-methoxy-chromane-6-carboxamide], the pEC50 was 7.22.

`CC(C)[C@]1(C)CC(=O)N([C@@H]2CCOc3ccc(C(=O)N[C@H]4CC(C)(C)Oc5ccccc54)cc32)C(=N)N1` [Example 10A, (R)-N-((S)-2,2-dimethylchroman-4-yl)-4-((S)-2-imino-4-isopropyl-4-methyl-6-oxotetrahydropyrimidin-1(2H)-yl)chromane-6-carboxamide] showed a negative-log EC50 (pEC50) of 9.30.

The compound `CC[C@]1(C)CC(=O)N([C@@H]2C[C@@H](C)c3ccc(C(=O)N[C@@H]4c5ccccc5OC[C@]4(C)O)cc32)C(=N)N1` [Example 130, (1R,3R)-3-[(4R)-4-ethyl-2-imino-4-methyl-6-oxo-hexahydropyrimidin-1-yl]-N-[(3R,4R)-3-hydroxy-3-methyl-chroman-4-yl]-1-methyl-indane-5-carboxamide] had a pEC50 of 8.68.

In turn, `C[C@@H]1C[C@@H](N2C(=N)NC(C)(C)CC2=O)c2cc(C(=O)N[C@@H]3c4ccccc4C[C@H]3O)ccc21` [Example 82, (1R,3R)-N-[(1R,2R)-2-hydroxyindan-1-yl]-3-(2-imino-4,4-dimethyl-6-oxo-hexahydropyrimidin-1-yl)-1-methyl-indane-5-carboxamide] showed a negative logarithm of the EC50 (pEC50) of 7.81. This pEC50 is 0.87 log units lower than that of the compound before.

Compound `COC1COc2ccc(C(=O)N[C@@H]3c4ccccc4OC(C)(C)[C@H]3O)cc2C1N1C(=N)NC(C)(C)CC1=O` (stereo partly drawn) [Example 217, N-[(3S,4R)-3-hydroxy-2,2-dimethyl-chroman-4-yl]-4-(2-imino-4,4-dimethyl-6-oxo-hexahydropyrimidin-1-yl)-3-methoxy-chromane-6-carboxamide] showed a pEC50 of 8.31.

`CC[C@]1(C)CC(=O)N([C@@H]2CCOc3ccc(C(=O)N[C@@H]4c5cc(F)ccc5OC(C)(C)[C@H]4O)cc32)C(=N)N1` [Example 224, (4R)-4-[(4R)-4-ethyl-2-imino-4-methyl-6-oxo-hexahydropyrimidin-1-yl]-N-[(3S,4R)-6-fluoro-3-hydroxy-2,2-dimethyl-chroman-4-yl]chromane-6-carboxamide]: the pEC50 is 9.52. This pEC50 lies 1.21 log units higher than the previous one.

The compound `CC[C@]1(C)CC(=O)N(C2c3cc(C(=O)N[C@@H]4c5ccccc5C[C@@]4(C)O)ccc3OCC2OC)C(=N)N1` (stereo partly drawn) [Example 179, 4-[(4R)-4-ethyl-2-imino-4-methyl-6-oxo-hexahydropyrimidin-1-yl]-N-[(1R,2R)-2-hydroxy-2-methyl-indan-1-yl]-3-methoxy-chromane-6-carboxamide] had a pEC50 of 7.18.

For `CCC1(CC)CC(=O)N([C@H]2c3cc(C(=O)N[C@@H]4c5ccccc5OC(C)(C)[C@H]4O)ccc3OC[C@@H]2COC)C(=N)N1` [Example 299, (3S,4R)-4-(4,4-diethyl-2-imino-6-oxo-hexahydropyrimidin-l-yl)-N-[(3S,4R)-3-hydroxy-2,2-dimethyl-chroman-4-yl]-3-(methoxymethyl)chromane-6-carboxamide], the pEC50 is 9.10. This pEC50 is 1.92 log units higher than that of the compound before.

For the compound `CCC1(CC)CC(=O)N([C@H]2c3cc(C(=O)N[C@@H]4c5ccccc5C[C@H]4O)ccc3OC[C@@H]2COC)C(=N)N1` [Example 216, (3S,4R)-4-(4,4-diethyl-2-imino-6-oxo-hexahydropyrimidin-1-yl)-N-[(1R,2R)-2-hydroxyindan-1-yl]-3-(methoxymethyl)chromane-6-carboxamide], the pEC50 was 8.57.

In the case of `CCC1(CC)C[C@@H](N2C(=N)NC(C)(C)CC2=O)c2cc(C(=O)N[C@@H]3c4ccccc4OC(C)(C)[C@H]3O)ccc2O1` [Example 50A, (R)-2,2-diethyl-N-((3S,4R)-3-hydroxy-2,2-dimethylchroman-4-yl)-4-(2-imino-4,4-dimethyl-6-oxotetrahydropyrimidin-1(2H)-yl)chromane-6-carboxamide], the pEC50 is 8.43.

The compound `CCC1(CC)CC(=O)N([C@@H]2CCOc3ccc(C(=O)NC(CC4CCCCC4)c4ccccc4)cc32)C(=N)N1` (stereo partly drawn) [Example 233, (4R)-N-(2-cyclohexyl-1-phenyl-ethyl)-4-(4,4-diethyl-2-imino-6-oxo-hexahydropyrimidin-1-yl)chromane-6-carboxamide] showed a pEC50 of 8.10.

`CCC1(CC)CC(=O)N([C@@H]2CCOc3ccc(C(=O)N[C@@H]4C[C@@H](C(F)(F)F)Oc5ccccc54)cc32)C(=N)N1` [Example 6B, (R)-4-(4,4-diethyl-2-imino-6-oxotetrahydropyrimidin-1(2H)-yl)-N-((2S,4R)-2-(trifluoromethyl)chroman-4-yl)chromane-6-carboxamide] gave a pEC50 of 8.06.

The compound `CCC1(CC)CC(=O)N([C@H]2c3cc(C(=O)N[C@@H]4c5ccccc5OC(C)(C)[C@H]4O)ccc3OC[C@@H]2C)C(=N)N1` [Example 240, (3R,4R)-4-(4,4-diethyl-2-imino-6-oxo-hexahydropyrimidin-1-yl)-N-[(3S,4R)-3-hydroxy-2,2-dimethyl-chroman-4-yl]-3-methyl-chromane-6-carboxamide] showed a pEC50 of 9.22.

`CCC1(CC)CC(=O)N(C2c3cc(C(=O)N[C@@H]4c5ccccc5C[C@H]4O)ccc3OC2(C)C)C(=N)N1` (stereo partly drawn) [Example 127A, 3-(4,4-diethyl-2-imino-6-oxo-hexahydropyrimidin-1-yl)-N-[(1R,2R)-2-hydroxyindan-1-yl]-2,2-dimethyl-3H-benzofuran-5-carboxamide] had a pEC50 of 6.69.
